# Measured values as given in PMC11050087, “Polyphenols from Maackia amurensis Heartwood Protect Neuronal Cells from Oxidative Stress and Prevent Herpetic Infection” (International Journal of Molecular Sciences, 2024).
# Where “and” joins values, the source holds several entries; their conditions need not be identical. Identical values can stand only once.
# Tests used:
# [1] = system: 6-OHDA-treated Neuro-2a cells; experiment: 6-OHDA-induced neurotoxicity model, cell viability test (MTT); type: cell-based, murine; conditions: 6-OHDA 100 µM
# Procedure: Neuro-2a cells were incubated with the studied polyphenolic compounds for 1 h. Then, 100 µM of 6-hydroxydopamine 6-OHDA were added. We determined the percentage of living Neuro-2a cells after treatment with 6-OHDA (Figure 4a–d).
# Figure 4 The effect of polyphenolic compounds isolated from M. amurensis heartwood on the viability of Neuro-2a cells treated with 6-OHDA (100 μM) (a–d). The viability of Neuro-2a cells treated with various compounds and 6-OHDA was measured by the MTT assay. Polyphenolic compounds isolated from M. amurensis heartwood were used at concentrations 10, 1, 0.1 μM. The data are presented as means ± SEM of three independent replicates. (*) indicate p < 0.05 versus 6-OHDA-treated cells.
# After 24 h of adhesion, Neuro-2a cells (5 × 10^4 cells/mL) were treated with polyphenolic compounds at concentrations of 0.1, 1 and 10 μM for 1 h. Then, 100 µM of 6-OHDA or 1 mM of PQ (Sigma-Aldrich, St. Louis, MO, USA) were added. Cells incubated without inductors or with inductors were used as positive and negative control, respectively. Cell viability was measured after 24 h using the MTT assay.
# HSV-1 [2] = experiment: Virucidal activity, RT-PCR assay (HSV-1 pretreated with compounds); type: cell-based, HSV-1 strain L2; conditions: for virucidal activity against HSV-1 by RT-PCR (in words): 0.1, 1 and 10 µg/mL; for Ct: 72 h; for −ΔCt: vs virus control
# Procedure: Vero cells grown on 96-well plates were infected with the virus (100 TCID50/mL), pretreated with polyphenolic compounds at concentrations 0.1, 1 and 10 μg/mL. After 72 h of cell incubation, viral DNA was extracted from the supernatants, and the relative level of HSV-1 DNA was determined using RT-PCR. The effect of polyphenols on the relative level of viral DNA was assessed using the 2^−∆Ct method and reported as fold reduction compared to virus control.
# (§1) The HSV-1 strain L2 obtained from N.F. Gamaleya Federal Research Centre for Epidemiology and Microbiology (Moscow, Russia) was grown in Vero cells as previously described.
# (§2) We determined the direct inhibitory effect of polyphenolic compounds from M. amurensis heartwood on HSV-1 (virucidal effect). We mixed the virus at an infectious dose (100 TCID50/mL) with polyphenolic compounds (from 0.1 to 100 µg/mL) at a ratio of 1:1 (v/v) and incubated for an hour at 37 °C. Then, we infected the monolayer of Vero cells grown on 96-well plates (1 × 10^4 cells/well) with HSV-1 pretreated with the studied compounds. After 1 h adsorption at 37 °C, the cells were washed with phosphate-buffered saline (PBS) and overlaid by the maintenance medium with 1% FBS. The plates were incubated for 72 h at 37 °C in a CO2-incubator. The cytopathic effect (CPE) inhibition assay and real-time reverse transcription-PCR (RT-PCR) assay were used to evaluate virucidal effect of the tested compounds.
# We performed the RT-PCR assay as we previously described in detail in [22]. Briefly, HSV-1 DNA was extracted after incubation from cell supernatants by using the DNA-sorb-AM (K1-12-100-CE) nucleic acid extraction kit (AmpliSens®, Moscow, Russia) according to the manufacturer′s instructions. We treated the supernatants with a lysis solution that contained guanidine chloride (chaotropic agent) in the presence of sorbent (silica particles). As the elution solution was added, the DNA was […] silica particles and separated from the sorbent particles by centrifugation.
# We detected the DNA of HSV-1 in the obtained samples using the AmpliSens® HSV I, II-FRT-100F PCR kit (AmpliSens®, Moscow, Russia) on a real-time PCR instrument Rotor-Gene Q (Qiagen, Hilden, Nordrhein-Westfalen, Germany) according to the manufacturer′s instructions. The PCR reaction conditions were the following: initial denaturation at 95 °C for 15 min; then 5 cycles at 95 °C for 5 s, at 60 °C for 20 s, at 72 °C for 15 s; then 40 cycles at 95 °C for 5 s, at 60 °C for 20 s, and at 72 °C for 15 s. A negative sample was used as the amplification control for each run. The threshold cycle number Ct, was measured as the PCR cycle, where the amount of the amplified target reached the threshold value; the Ct values ≥ 37 indicated the absence of the HSV-1 DNA in the samples. We assessed the anti-HSV-1 activity of the studied compounds by the reduction in the viral DNA levels using the 2^−ΔCt method according to Equation (2):(2) ΔCt=Ctcv−Cttv where Ct is the threshold cycle number measured as the PCR cycle, where the amount of the amplified target reached the threshold value, […]
# HSV-1 [3] = experiment: Virucidal activity, CPE inhibition assay (HSV-1 pretreated with compounds); type: cell-based, HSV-1 strain L2; conditions: CPE assay; for virucidal activity against HSV-1 (in words): virus pretreated with compound
# Procedure: The antiviral activity of polyphenols from M. amurensis against HSV-1 was assessed using the cytopathic effect inhibition (CPE) assay. To study the inhibitory effect of polyphenolic compounds directly on the HSV-1 virus (direct virucidal activity), the monolayer of Vero cells grown on 96-well plates (1 × 10^4 cells/well) was infected with the virus (100 TCD50/mL), pretreated with different concentrations of polyphenolic compounds.
# as §1, §2
# We previously described this method in detail in [22]. We performed the MTT assay to evaluate the antiviral activity of polyphenolic compounds. The viral inhibition rate (IR, %) was calculated according to Equation (1):(1) IR, %=Atv−Acv/Acd−Acv×100, where Atv is the absorbance of cells infected with HSV-1 pretreated with the studied compounds,
# We calculated the selectivity index (SI) as the ratio of CC50 to IC50. Experiments were repeated three times.
# [4] = Human alphaherpesvirus 1, 72 h, read-out: 2^−ΔCt
# [5] = Human alphaherpesvirus 1, 72 h, read-out: log10
Structure (SMILES),effect on viability of 6-OHDA-treated Neuro-2a cells (in words) ([1]; compound 1 µM),virucidal activity against HSV-1 by RT-PCR (in words) (HSV-1 [2]),virucidal activity against HSV-1 (in words) (HSV-1 [3]),Ct (HSV-1 [2]; 0.1 µg/mL),−ΔCt (HSV-1 [2]; 0.1 µg/mL),Ct (HSV-1 [2]; 1 µg/mL),−ΔCt (HSV-1 [2]; 1 µg/mL),anti-HSV-1 activity by RT-PCR (in words) (HSV-1 [2]; 10 µg/mL),Ct (HSV-1 [2]; 10 µg/mL),−ΔCt (HSV-1 [2]; 10 µg/mL),activity at 0.1 µg/mL (HSV-1 [2]; [4]) [%],activity at 1 µg/mL (HSV-1 [2]; [4]) [%],activity at 10 µg/mL (HSV-1 [2]; [4]) [%],log reduction at 0.1 µg/mL (HSV-1 [2]; [5]),log reduction at 1 µg/mL (HSV-1 [2]; [5]),log reduction at 10 µg/mL (HSV-1 [2]; [5]),"IC50 (HSV-1 [3]; Human alphaherpesvirus 1, virus pretreated with compound (virucidal), Vero cells, 100 TCID50/mL)","effect on viability of 6-OHDA-treated Neuro-2a cells (in words) ([1]; compounds at 10, 1, 0.1 µM)"
"COc1ccc(C2(O)COc3cc(O)ccc3C2=O)c(O)c1 (racemic) [Compound 12, (±)-3-hydroxyvestitone]",increased the viability,did not demonstrate virucidal activity,did not show virucidal activity,–,–,–,–,–,–,–,–,–,–,–,–,–,–,–
"O=c1c(-c2ccc(O)cc2)coc2cc(O)cc(O)c12 [Compound 2, genistein]",–,–,–,18.1 ± 2.2,0,18.4 ± 2.4,−0.30 ± 0.03,moderate anti-HSV-1 activity,22.4 ± 2.4,−4.3 ± 0.5,100,81.2 ± 11,5.08 ± 0.61,0,0.09 ± 0.01,1.3 ± 0.2,16.7 µg/mL and 61.9 µM,–
"COc1c(O)cc2occ(-c3ccc(O)cc3)c(=O)c2c1O [Compound 5, tectorigenin]",–,did not demonstrate virucidal activity,did not show virucidal activity,–,–,–,–,–,–,–,–,–,–,–,–,–,–,weak effect on cell viability
